Each structure is given as a SMILES string.

The experiment relates to SARS-CoV-2. Kind of experiment: microbe, parasite or virus in culture. Conditions: Severe acute respiratory syndrome coronavirus 2, Vero C1008, 48 h.

In the case of `CC(C)C(Br)C(=O)NC(N)=O` (stereo unspecified) [BROMISOVALUM], the IC50 is greater than 20 µM. For the same molecule, the IC50 (read-out: pIC50 (converted)) was greater than 20 µM.

On to `O=C(Nc1ccc(Cl)cc1)c1cc(Br)ccc1O` [BROMOCHLOROSALICYLANILIDE], for which the IC50 is greater than 20 µM. The IC50 (read-out: pIC50 (converted)) was greater than 20 µM.

Consider `O=C(NO)c1cc(Br)ccc1O` [BROMOCYL], for which the IC50 was greater than 20 µM. Also, for the setting “read-out: pIC50 (converted)”, the IC50 is greater than 20 µM.

With `CCN(CC)CCNC(=O)c1cc(Br)c(N)cc1OC` [BROMOPRIDE], the IC50 was greater than 20 µM. Where the note is “read-out: pIC50 (converted)”, the IC50 was greater than 20 µM.

`O=C(O)C(=O)CBr` [BROMOPYRUVATE] gave an IC50 greater than 20 µM. Also, the IC50 (read-out: pIC50 (converted)) was greater than 20 µM.

As to `O=C(CCCN1CCC(O)(c2ccc(Br)cc2)CC1)c1ccc(F)cc1` [BROMPERIDOL], the IC50 is greater than 20 µM. In addition, under “read-out: pIC50 (converted)”, the IC50 is greater than 20 µM.

As for `CN(C)CCC(c1ccc(Br)cc1)c1ccccn1` (stereo unspecified) [BROMPHENIRAMINE], the IC50 was greater than 20 µM. Besides, under “read-out: pIC50 (converted)”, the IC50 is greater than 20 µM.

As for `Cc1nnc2n1-c1sc(Br)cc1C(c1ccccc1Cl)=NC2` [BROTIZOLAM], the IC50 was greater than 20 µM. For the same molecule, the IC50 (read-out: pIC50 (converted)) was greater than 20 µM.

The molecule `Cc1ccc2c(Br)cc(Br)c(OC(=O)c3ccccc3)c2n1` [BROXALDINE] showed an IC50 greater than 20 µM. Also, the IC50 (read-out: pIC50 (converted)) is greater than 20 µM.

For `O=c1[nH]c(=O)n([C@H]2C[C@H](O)[C@@H](CO)O2)cc1Br` [BROXURIDINE], the IC50 is greater than 50.1 µM. Besides, the IC50 (read-out: pIC50 (converted)) is greater than 50.1 µM.

`Oc1c(Br)cc(Br)c2cccnc12` [BROXYQUINOLINE] displayed an IC50 greater than 20 µM. Further, for the setting “read-out: pIC50 (converted)”, the IC50 was greater than 20 µM.

`COc1cc2c(cc1OC)[C@@]13CCN4CC5=CCO[C@H]6CC(=O)N2[C@H]1[C@H]6[C@H]5C[C@H]43` [BRUCINE] showed an IC50 greater than 20 µM. In addition, the IC50 (read-out: pIC50 (converted)) was greater than 20 µM.

Take `Cn1ncc(-c2nc(N[C@H]3CC[C@H](N)CC3)ncc2Cl)c1CC1CC1` [BTX-A51]: the IC50 is greater than 20 µM. In addition, the IC50 (read-out: pIC50 (converted)) was greater than 20 µM.

With `CCOc1ccc(NC(=O)CC(C)O)cc1` (stereo unspecified) [BUCETIN], the IC50 is greater than 20 µM. Further, the IC50 (read-out: pIC50 (converted)) is greater than 20 µM.

Take `CCCC(=O)Nc1ncnc2c1ncn2[C@@H]1O[C@@H]2COP(=O)(O)O[C@H]2[C@H]1OC(=O)CCC` [BUCLADESINE]: the IC50 is greater than 20 µM. For the same molecule, the IC50 (read-out: pIC50 (converted)) was greater than 20 µM.

Turning to `CCCCC1C(=O)NC(=O)N(C2CCCCC2)C1=O` (stereo unspecified) [BUCOLOME], the IC50 was greater than 20 µM. Further, under “read-out: pIC50 (converted)”, the IC50 is greater than 20 µM.

The molecule `CCCCN(CCCC)CCCOc1c(C)cc(C(=O)c2cc(=O)c3ccccc3o2)cc1C` [BUCROMARONE] returned an IC50 greater than 20 µM. Further, for the setting “read-out: pIC50 (converted)”, the IC50 is greater than 20 µM.

In turn, `CCCC1O[C@@H]2C[C@H]3[C@@H]4CCC5=CC(=O)C=C[C@]5(C)[C@H]4[C@@H](O)C[C@]3(C)[C@]2(C(=O)CO)O1` (stereo partly specified) [BUDESONIDE] showed an IC50 greater than 20 µM. The IC50 (read-out: pIC50 (converted)) was greater than 20 µM.

With `CCCCOc1ccc(CC(=O)NO)cc1` [BUFEXAMAC], the IC50 is greater than 20 µM. For the same molecule, the IC50 (read-out: pIC50 (converted)) was greater than 20 µM.

In the case of `COc1cc(OC)c(C(=O)CCCN2CCCC2)c(OC)c1` [BUFLOMEDIL], the IC50 is greater than 20 µM. In addition, the IC50 (read-out: pIC50 (converted)) is greater than 20 µM.

`CCCCNC(=N)NC(=N)N` [BUFORMIN] gave an IC50 greater than 20 µM. Moreover, the IC50 (read-out: pIC50 (converted)) is greater than 20 µM.

`CN(C)CCc1c[nH]c2ccc(O)cc12` [BUFOTENINE] registered an IC50 greater than 20 µM. Moreover, the IC50 (read-out: pIC50 (converted)) is greater than 20 µM.

Regarding `CCc1cccc2cc(C(O)CNC(C)(C)C)oc12` (stereo unspecified) [BUFURALOL], the IC50 was greater than 20 µM. In addition, under “read-out: pIC50 (converted)”, the IC50 is greater than 20 µM.

`CCCCOC(=O)NS(=O)(=O)c1sc(CC(C)C)cc1-c1ccc(Cn2ccnc2)cc1` [BULOXIBUTID] gave an IC50 greater than 20 µM. For the same molecule, the IC50 (read-out: pIC50 (converted)) is greater than 20 µM.

In turn, `CCCCC(C(=O)O)C(=O)N(Nc1ccccc1)c1ccccc1` (stereo unspecified) [BUMADIZONE] gave an IC50 greater than 20 µM. The IC50 (read-out: pIC50 (converted)) is greater than 20 µM.

The molecule `CCCCNc1cc(C(=O)O)cc(S(N)(=O)=O)c1Oc1ccccc1` [BUMETANIDE] returned an IC50 greater than 20 µM. Besides, the IC50 (read-out: pIC50 (converted)) is greater than 20 µM.

`Cc1cc(-n2nc3ccc(Cl)cc3n2)c(O)c(C(C)(C)C)c1` [BUMETRIZOLE] showed an IC50 greater than 20 µM. For the same molecule, the IC50 (read-out: pIC50 (converted)) is greater than 20 µM.

In turn, `CCCCc1cc(OC)c2ccccc2c1OC(C)=O` [BUNAPROLAST] displayed an IC50 greater than 20 µM. Also, the IC50 (read-out: pIC50 (converted)) was greater than 20 µM.

The molecule `CC(C)(C)NCC(O)COc1ccccc1C#N` (stereo unspecified) [BUNITROLOL] had an IC50 greater than 20 µM. In addition, the IC50 (read-out: pIC50 (converted)) is greater than 20 µM.

`CN1CC[C@]2(C)c3cc(OC(=O)Nc4ccccc4)ccc3N(C)[C@H]12` [BUNTANETAP] registered an IC50 greater than 20 µM. Under “read-out: pIC50 (converted)”, the IC50 is greater than 20 µM.

As to `Nc1cc(C(F)(F)F)c(-c2cc(N3CCOCC3)nc(N3CCOCC3)n2)cn1` [BUPARLISIB], the IC50 was greater than 20 µM. The IC50 (read-out: pIC50 (converted)) is greater than 20 µM.

Regarding `CCCCN1CCCCC1C(=O)Nc1c(C)cccc1C` (stereo unspecified) [BUPIVACAINE], the IC50 is greater than 20 µM. The IC50 (read-out: pIC50 (converted)) is greater than 20 µM.

On to `CO[C@@]12CC[C@@]3(C[C@@H]1[C@](C)(O)C(C)(C)C)[C@H]1Cc4ccc(O)c5c4[C@@]3(CCN1CC1CC1)[C@H]2O5` [BUPRENORPHINE], for which the IC50 was greater than 20 µM. Moreover, the IC50 (read-out: pIC50 (converted)) is greater than 20 µM.

For `CC(NC(C)(C)C)C(=O)c1cccc(Cl)c1` (stereo unspecified) [BUPROPION], the IC50 is greater than 20 µM. The IC50 (read-out: pIC50 (converted)) was greater than 20 µM.

`CCCCNC(=O)NC1CCN(c2ncnc3cc(OC)c(OC)cc23)CC1` [BUQUINERAN] came in with an IC50 greater than 20 µM. Further, the IC50 (read-out: pIC50 (converted)) is greater than 20 µM.

`O=C(NCc1ccccc1)OCCO` [BURAMATE] showed an IC50 greater than 20 µM. Under “read-out: pIC50 (converted)”, the IC50 is greater than 20 µM.

In the case of `O=C1CC2(CCCC2)CC(=O)N1CCCCN1CCN(c2ncccn2)CC1` [BUSPIRONE], the IC50 was greater than 20 µM. Further, under “read-out: pIC50 (converted)”, the IC50 was greater than 20 µM.

As to `CS(=O)(=O)OCCCCOS(C)(=O)=O` [BUSULFAN], the IC50 is greater than 20 µM. For the same molecule, the IC50 (read-out: pIC50 (converted)) was greater than 20 µM.

`CCCCN(CCCC)CCCOC(=O)c1ccc(N)cc1` [BUTACAINE] registered an IC50 greater than 20 µM. Further, under “read-out: pIC50 (converted)”, the IC50 is greater than 20 µM.

The molecule `CC(=O)Nc1ccc(OC(C)(C)C)cc1` [BUTACETIN] displayed an IC50 greater than 20 µM. For the same molecule, the IC50 (read-out: pIC50 (converted)) is greater than 20 µM.

Molecule `CCCCN(CCCC)CCNc1nc(-c2ccccc2)no1` [BUTALAMINE] had an IC50 greater than 20 µM. Also, the IC50 (read-out: pIC50 (converted)) is greater than 20 µM.

`C=CCC1(CC(C)C)C(=O)NC(=O)NC1=O` [BUTALBITAL] came in with an IC50 greater than 20 µM. Further, where the note is “read-out: pIC50 (converted)”, the IC50 is greater than 20 µM.

On to `CCCCOC(=O)c1ccc(N)cc1` [BUTAMBEN], for which the IC50 is greater than 20 µM. Besides, where the note is “read-out: pIC50 (converted)”, the IC50 was greater than 20 µM.

With `CCC(C(=O)OCCOCCN(CC)CC)c1ccccc1` (stereo unspecified) [BUTAMIRATE], the IC50 was greater than 20 µM. The IC50 (read-out: pIC50 (converted)) is greater than 20 µM.

As for `O=C(c1ccc(F)cc1)C1CCN(CCCCn2c(=O)[nH]c3ccccc3c2=O)CC1` [BUTANSERIN], the IC50 is greater than 20 µM. Also, the IC50 (read-out: pIC50 (converted)) was greater than 20 µM.

With `CCCC(=O)c1ccc2c(c1)N(CCCN1CCN(C)CC1)c1ccccc1S2` [BUTAPERAZINE], the IC50 is greater than 20 µM. The IC50 (read-out: pIC50 (converted)) was greater than 20 µM.

In the case of `O=C(/C=C/c1ccc(O)c(O)c1)c1ccc(O)cc1O` [BUTEIN], the IC50 is greater than 20 µM. Besides, the IC50 (read-out: pIC50 (converted)) was greater than 20 µM.

As for `CN(Cc1ccc(C(C)(C)C)cc1)Cc1cccc2ccccc12` [BUTENAFINE], the IC50 was greater than 20 µM. Besides, the IC50 (read-out: pIC50 (converted)) is greater than 20 µM.

The values are drawn from ChEMBL document CHEMBL4651402, “Screening of ~5500 FDA-approved drugs and clinical candidates for anti-SARS-CoV-2 activity” (2021).
